Results published in patent US11278525B1, “Further molecules, compositions and methods for modulation of SIRT6” (SirTLab Corporation, priority 2017, dated 2022).

target: SIRT6 (Homo sapiens, UniProt Q8N6T7); assay: SIRT6 enzymatic activity assay with fluorophore (AMC)-labeled Lysin-myristoylated histone H3 peptide (de-myristoylation, trypsin release); assay type: biochemical; set-up: six-histidine tag; made in house; host or cells: Escherichia coli BL21; details: amount tested 20 uM; Example 5, Table 9
Experimental: Human recombinant SIRT6 (sequence identifier: CAG33481.1; GI:4814651) was expressed in large scale in Escherichia coli strain BL21 as a six-histidine-tagged protein, after transformation of the expression plasmid pET28-SIRT6. The SIRT6 enzyme was purified from the bacteria culture broth in a two-step strategy. The first purification step was carried out by cation exchange chromatography on a HiTrap CM-Sepharose column (GE Healthcare) using an FPLC system. The second purification step was performed by immobilized metal ion affinity chromatography (IMAC) using a cobalt affinity column (Clontech).
The enzymatic activity assay is carried out in 96 or 384-well microplates using the purified recombinant SIRT6 and a fluorophore-labeled peptide substrate: 7-amino-4-methylcoumarin (AMC) that is quenched through conjugation to the C-terminal end of a Lysin-myristoylated histone H3 peptide. The activity assay procedure requires two steps, both performed in the same microplate. In the first step, the substrate is incubated with the purified SIRT6 protein along with the co-substrate nicotinamide adenine dinucleotide (NAD+). Upon de-myristoylation, the liberated ε-amino group of the lysine becomes a trypsin substrate. Treatment with trypsin in the second step releases the fluorophore resulting in an increase in fluorescence. Fluorescence intensity is measured using a fluorescent plate reader (excitation and emission at 370 nm and 450 nm, respectively). The fluorescence signal is directly proportional to SIRT6 enzymatic activity.
In the primary screening, compounds from a library (ChemDiv Inc.) were tested at a single concentration of 20 micromolar for their potential to modulate SIRT6 enzymatic activity. The assay was carried out in 384-well black well plates and all liquid handling was done using a robotic liquid handler. Purified recombinant SIRT6 (1 micromolar) was pre-incubated with each compound (or DMSO in control wells) for 15 minutes at room temperature. The first stage of the assay was initiated by adding a ‘substrate solution’ containing the myristoylated histone H3 peptide and NAD+(for final concentrations of 25 micromolar and 20 micromolar, respectively). After one hour incubation at 37° C., a Trypsin solution (6 mg/mL) was added for 30 minutes at room temperature. Fluorescence intensity was measured using a fluorescent plate reader (Tecan) with excitation at 370 nm and emission at 450 nm. The effect of each tested compound was evaluated by the change in the fluorescence intensity compared to control wells. […] To validate the primary screening results, each of the primary “hits” was re-tested, first at concentration of 20 micromolar in duplicates and later at a serial dilution ranging from 100 to 0.2 micromolar in triplicates.
Results of Assay—The results of the assay are given below in Tables 1-3.
Additional molecules were tested according to the methods and materials of Example 1. The amount tested was 20 uM for each molecule.

SIRT6, sequence (Q8N6T7 whole entry): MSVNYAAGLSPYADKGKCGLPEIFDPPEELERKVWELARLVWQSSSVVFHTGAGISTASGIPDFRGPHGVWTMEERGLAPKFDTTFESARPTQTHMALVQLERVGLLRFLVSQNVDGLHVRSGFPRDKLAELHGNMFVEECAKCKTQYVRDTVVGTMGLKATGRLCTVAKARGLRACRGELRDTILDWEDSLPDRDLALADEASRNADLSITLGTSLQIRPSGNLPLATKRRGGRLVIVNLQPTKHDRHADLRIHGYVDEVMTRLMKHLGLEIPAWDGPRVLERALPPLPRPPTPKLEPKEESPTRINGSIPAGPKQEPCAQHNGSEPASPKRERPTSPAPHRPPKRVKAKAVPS

Going from `Cc1c(Cc2ccccc2)c(=O)oc2c(C)c(OC(=O)C3CC3)ccc12` [Y040-1980] to `CCC(=O)Oc1ccc2c(C)c(Cc3ccccc3)c(=O)oc2c1C` [2259-4063], the “% Activity” value rises from 30% to 273%.

Going from `COc1ccc(CN2CCN(C(=O)c3ccc(N4CCc5ccccc54)s3)CC2)c(OC)c1OC` [G122-1838] to `CCN1CCN(C(=O)C2CCN(c3nc4ccc(-c5ccccc5)nc4s3)CC2)CC1` [T387-0670], the “% Activity” value rises from 45% to 69%.

Compared with `O=C(C1=CC=CC1)n1nc(-c2ccccc2)nc1NCc1ccco1` [6855-0211], `O=C(CSc1nc2ncccc2n2cccc12)NCc1ccco1` [G117-0491] is higher in “% Activity” value: 77% for the first, 88% for the second.

Going from `O=C(Oc1ccc2c3c(c(=O)oc2c1)CCC3)c1cccs1` [2712-4058] to `Cc1ccccc1C(=O)Oc1ccc2c3c(c(=O)oc2c1)CCC3` [2712-4063], the “% Activity” value falls from 455% to 61%.

Compared with `COC(=O)COc1cccc2c1ccc1c3c(c(=O)oc12)CCCC3` [3532-0820], `CCOc1ccccc1C(=O)Oc1ccc2c3c(c(=O)oc2c1)CCCC3` [Y040-4190] is higher in “% Activity” value: 30% for the first, 168% for the second.

Going from `CC(=O)Oc1ccc(C(=O)Nc2nc3c(C)cc(C)cc3s2)cc1` [3659-2007] to `CCC(=O)Nc1nc2c(OC)cc(NC(=O)c3ccccc3OC)cc2s1` [F259-0462], the “% Activity” value rises from 27% to 117%.

First: CN1CCN(C(=O)C2CCN(c3nc4ccc(-c5ccccc5)nc4s3)CC2)CC1 [T387-0661]
Second: CN(C)C(=O)C1CCN(c2nc3ccc(-c4cncnc4)nc3s2)CC1 [T387-0950]
The “% Activity” value of the first is lower: 67% for the first, 80% for the second.

First: Cc1ccc(C(=O)Oc2ccc3c4c(c(=O)oc3c2C)CCC4)cc1 [Y040-4193]
Second: Cc1ccc(COc2ccc3c4c(c(=O)oc3c2C)CCC4)cc1 [3338-2074]
The “% Activity” value of the first is higher: 53% for the first, 21% for the second.

Going from `COc1cccc2sc(N(CCCN(C)C)C(=O)CCS(=O)(=O)c3ccccc3)nc12` [E677-1143] to `CN(C)CCCN(C(=O)CCS(=O)(=O)c1ccccc1)c1nc2ccc(F)cc2s1` [E677-0508], the “% Activity” value falls from 111% to 53%.

First: Cc1c(Cc2ccccc2)c(=O)oc2cc(OC(=O)c3ccccc3)ccc12 [Y040-7755]
Second: COc1ccc(C(=O)Oc2ccc3c(C)c(Cc4ccccc4)c(=O)oc3c2C)cc1 [Y040-7713]
The “% Activity” value of the first is higher: 212% for the first, 21% for the second.

Going from `CCN(CC)C(=O)C1CCN(C2=Nc3ccc(-c4ccncc4)nc3C2)CC1` [T387-1131] to `CN(C)CCNC(=O)C1CCN(c2nc3ccc(-c4cncnc4)nc3s2)CC1` [T387-0941], the “% Activity” value falls from 85% to 49%.

Going from `COC(=O)c1ccccc1NC(=O)Cn1c(S(=O)(=O)Cc2ccccc2)nc2ccccc21` [7398-1534] to `Cc1cc(C)c2sc(N(Cc3cccnc3)C(=O)CCS(=O)(=O)c3ccccc3)nc2c1` [G856-7064], the “% Activity” value rises from 27% to 61%.

Compared with `CCOC(=O)CCc1c(C)c2ccc(OC(=O)c3cccc(OC)c3)c(C)c2oc1=O` [Y041-1765], `CCCCCCc1c(C)c2ccc(OC(C)=O)c(C)c2oc1=O` [Y040-4544] is lower in “% Activity” value: 80% for the first, 33% for the second.

Going from `Cc1cc(C)c2sc(N(CCCN(C)C)C(=O)CCS(=O)(=O)c3ccccc3)nc2c1` [E677-2413] to `COc1cccc2sc(N(CCCN(C)C)C(=O)CCSc3ccccc3)nc12` [E677-1137], the “% Activity” value falls from 115% to 111%.

Going from `CC(=O)Oc1ccc2c3c(c(=O)oc2c1C)CCCC3` [3330-4541] to `CCCCCCc1c(C)c2cc3c(-c4ccc(F)cc4)coc3c(C)c2oc1=O` [Y041-6500], the “% Activity” value falls from 105% to 21%.

With `COc1cccc2sc(N(CCCN(C)C)C(=O)CCOc3ccccc3)nc12` [E677-1072] the “% Activity” value was 117%.

same assay, conditions: compound 20 uM; percentage of signal increase relative to control wells; Tables 1-2

First: C=C(Oc1ccc2cnccc2c1)c1sc2ccccc2c1N [G891-0058]
Second: Cc1ccnc(NC(c2ccc(Cl)cc2Cl)c2ccc3cccnc3c2O)c1 (stereo not shown) [4896-3248]
The “% activity 20 uM” value of the first is higher: 154% for the first, 30% for the second.

Compared with `CCC(=O)Nc1ccc(-c2cc(C(=O)NCCCN3CCCCCC3)c3ccccc3n2)cc1` [L036-0162], `CCC(=O)Nc1ccc(-c2cc(C(=O)NCCCN3CCCC(C)C3)c3ccccc3n2)cc1` (stereo not shown) [L036-0174] is lower in “% activity 20 uM” value: 62% for the first, 61% for the second.

Going from `Cc1nc(Cc2ccc(F)cc2)sc1C(=O)Nc1ccc(F)cc1F` [M830-6517] to `CCOCCCNc1nc2ccccc2nc1S(=O)(=O)Cc1ccc(Cl)cc1` [L103-0696], the “% activity 20 uM” value rises from 36% to 91%.

Compared with `C=C(Nc1cc(C)cc(C)c1)Nc1nnc(SCC2=CC(=C)N3C=C(C)C=CC3=N2)s1` [G755-0539], `CC(C)Cn1c(=O)c(-c2ccc(C(=O)N3CCN(c4ccccc4)CC3)cc2)nc2ccccc21` [M049-1557] is higher in “% activity 20 uM” value: 34% for the first, 51% for the second.

same assay, conditions: compound 100 uM; percentage of signal increase relative to control wells; Tables 1-2

First: COc1ccc(-c2csc3c(NN)ncnc23)cc1 [C201-1744]
Second: C=C(Oc1ccc2cnccc2c1)c1sc2ccccc2c1N [G891-0058]
The “% activity Max. conc. 100 uM” value of the first is lower: 22% for the first, 324% for the second.

Going from `C=C(OC(C)CC)C1=C(C)NC2=C(C(=C)C(C(=C)OC)C(C)C2)C1c1ccc(N(CC)CC)cc1` (stereo not shown) [C142-0098] to `CC[C@H]1O[C@@H](Cc2ccc3c(c2C)CC(=O)C(C)=C3C)[C@H](C)[C@@H](O)[C@H]1C` [D715-0292], the “% activity Max. conc. 100 uM” value falls from 61% to 56%.

Compared with `COCCNc1oc2c(c1-c1ccc(C)cc1)c(=O)oc1c(C)cccc12` [F025-0102], `C=C1Cc2ccc(C)cc2C2=C1C(c1ccc(F)cc1)=C(NCCOC)C2` [F025-0094] is higher in “% activity Max. conc. 100 uM” value: 111% for the first, 246% for the second.

Compared with `O=C(Nc1ccc2nnc(C3CCC3)n2c1)C1CC1` [M723-1459], `C=C(C)C1Cc2cc(C(F)(F)F)ccc2N2CCCCC12` (stereo not shown) [V004-5575] is higher in “% activity Max. conc. 100 uM” value: 142% for the first, 175% for the second.

Going from `Cn1c(-c2ccc3[nH]c(-c4ccc(N)cc4)nc3c2)nc2cc(N)ccc21` [6843-3168] to `Cc1ccc(NC(=O)c2nnc(-c3ccc(NC(=O)c4cccs4)cc3)s2)cc1` [F498-0132], the “% activity Max. conc. 100 uM” value falls from 162% to 16%.

Compared with `CCC(=O)Nc1ccc(-c2cc(C(=O)NCCCN3CCCCCC3)c3ccccc3n2)cc1` [L036-0162], `CCC(=O)Nc1ccc(-c2cc(C(=O)NCCCN3CCCC(C)C3)c3ccccc3n2)cc1` (stereo not shown) [L036-0174] is lower in “% activity Max. conc. 100 uM” value: 92% for the first, 87% for the second.

Compared with `Cc1nc(Cc2ccc(F)cc2)sc1C(=O)Nc1ccc(F)cc1F` [M830-6517], `CCOCCCNc1nc2ccccc2nc1S(=O)(=O)Cc1ccc(Cl)cc1` [L103-0696] is higher in “% activity Max. conc. 100 uM” value: 22% for the first, 159% for the second.

First: CCc1nnc(NC(=O)CSc2nc(N)nc(SC)c2C#N)s1 [8001-8196]
Second: C=C(Nc1cc(C)cc(C)c1)Nc1nnc(SCC2=CC(=C)N3C=C(C)C=CC3=N2)s1 [G755-0539]
The “% activity Max. conc. 100 uM” value of the first is lower: 25% for the first, 87% for the second.

First: CC1=CC(C)(C)Nc2ccc(OC(=O)c3cccs3)cc21 [4477-2607]
Second: Cc1ccnc(NC(c2ccc(Cl)cc2Cl)c2ccc3cccnc3c2O)c1 (stereo not shown) [4896-3248]
The “% activity Max. conc. 100 uM” value of the first is higher: 54% for the first, 28% for the second.

Compared with `N#Cc1c(N)oc(C2=CC=CC2)c1-c1ccco1` [8014-9229], `CCC(=O)Nc1ccc(-c2cc(C(=O)NCCCN3CCCCC3C)c3ccccc3n2)cc1` (stereo not shown) [L036-0163] is higher in “% activity Max. conc. 100 uM” value: 48% for the first, 110% for the second.

Going from `CC(C)Cn1c(=O)c(-c2ccc(C(=O)N3CCN(c4ccccc4)CC3)cc2)nc2ccccc21` [M049-1557] to `O=c1cc(O)c2sc3nc4c(cc3c2[nH]1)CCCCC4` [8018-3339], the “% activity Max. conc. 100 uM” value rises from 56% to 75%.
